# Test results published in ChEMBL document CHEMBL5647693, “Molecular basis underlying resistance to Mps1/TTK inhibitors” (Oncogene, 2016).
# pIC50: −log10 of the molar value.
# Experiments:
# Assay in all cases: cells
# Assay type in all cases: functional, cell-based
# HCT-116 [1] = details: Homo sapiens, HCT-116, 120 h
# HeLa [2] = details: Homo sapiens, 120 h
# HCT-116 [3] = details: Homo sapiens, HCT-116, 120 h; remark: listed apart in the source
# U2OS = details: Homo sapiens, 120 h
# HCT-116 [4] = details: Homo sapiens, HCT-116, 120 h; remark: listed apart in the source
# DLD-1 [5] = details: Homo sapiens, DLD-1, 120 h
# DLD-1 [6] = details: Homo sapiens, DLD-1, 120 h; remark: listed apart in the source
# HeLa [7] = details: Homo sapiens, 120 h; remark: listed apart in the source
# DLD-1 [8] = details: Homo sapiens, DLD-1, 120 h; remark: listed apart in the source
# HCT-116 [9] = details: Homo sapiens, HCT-116, 120 h; remark: listed apart in the source
# HeLa [10] = details: Homo sapiens, 120 h; remark: listed apart in the source
# HeLa [11] = details: Homo sapiens, 120 h; remark: listed apart in the source
structure (smiles),measurement,setting,value
CCc1cccc(CC)c1NC(=O)c1nn(C)c2c1CCc1cnc(Nc3ccc(C(=O)NC4CCN(C)CC4)cc3OC(F)(F)F)nc1-2,pIC50,HCT-116 [1],6.77
same,pIC50,HeLa [2],6.36
same,pIC50,HCT-116 [3],6.81
same,pIC50,U2OS,6.82
same,pIC50,HCT-116 [4],< 5.70
same,pIC50,DLD-1 [5],6.70
same,pIC50,DLD-1 [6],6.78
same,pIC50,HeLa [7],5.88
same,pIC50,DLD-1 [8],5.99
same,pIC50,HCT-116 [9],5.79
same,pIC50,HeLa [10],< 5.70
same,pIC50,HeLa [11],5.76
